Patent publication US20110212083A1, “ROLE OF SOLUBLE UPAR IN THE PATHOGENESIS OF PROTEINURIC KIDNEY DISEASE” (University of Miami Office of Technology Transfer, priority 2008, published 2011)
“Also recorded” adds a separate entry of the source.

Columns and labels:
αvβ3 integrin = details: in vivo; cited from earlier work
57BL/6 and Plaur−/− mice = assay: right kidney cross-transplantation with LPS treatment (TEM and uPAR immunostaining); format: in vivo, mouse; details: for foot process effacement (TEM): LPS 10 mg/kg i.p., 24 h
Description: Right kidney cross-transplantation: Six 57BL/6 female mice and 6 Plaur^−/− female mice in the same age and body weight ranges (7-8 weeks, 15-18 g) were randomly recruited into this study. The right kidney from Plaur^−/− mice were transplanted into 57BL/6 mice at the right side and vice versa. Kidney transplantation was performed as previously described (Coffman, T. et al, J. Immunol. 151, 425-435 (1993); Han, W. R., Murray-Segal, L. J. and Mottram, P. L. Microsurgery. 19, 272-274 (1999)). After recovery from surgery, mice were randomly treated with LPS at 10 mg/kg body weight, i.p. or same amount of PBS for control. 24 h after LPS injection, mice were sacrificed, and kidney was taken out for further analysis.
Transmission electron microscopy (TEM): TEM was performed according to the standard protocols (Sever, S. et al. J. Clin. Invest. 117, 2095-2104 (2007)).
To further confirm the role of suPAR in proteinuria development and kidney disease, cross-kidney transplantation was performed and the effect of endogenous soluble form of uPAR was examined. The right kidney was excised from normal 57BL/6, and transplanted into Plaur^−/− mice on the right side and vice versa (FIG. 3A). Mice were randomly chosen to receive lipopolysaccharide (LPS) to induce proteinuria or PBS for control after recovery from surgery. […] For the PBS treated 57BL/6 mice however, foot process effacement was not remarkable in either transplanted Plaur^−/− kidney or native 57BL/6 kidney (FIG. 1E). […] In contrast, foot process effacement was not remarkable in either native Plaur^−/− kidney or in the transplanted 57BL/6 kidney of PBS controlled mice (FIG. 1F). […] In order to determine whether suPAR is responsible for the phenomena, the sections were immunostained from both native and transplanted kidney with uPAR antibody.

CC(C)[C@@H]1NC(=O)[C@@H](Cc2ccccc2)NC(=O)[C@H](CC(=O)O)NC(=O)CNC(=O)[C@H](CCCN=C(N)N)NC1=O [cycloRGDfV]
proteinuria caused by uPAR-β3-integrin signaling (αvβ3 integrin): prevented and reduced; also recorded: blocked

lipopolysaccharide [LPS]
foot process effacement (TEM) (57BL/6 and Plaur−/− mice; 57BL/6 mice, native 57BL/6 kidney): significant foot process effacement | foot process effacement (TEM) (57BL/6 and Plaur−/− mice; 57BL/6 mice, transplanted Plaur−/− kidney): massive foot process effacement | podocyte uPAR expression (immunostaining) (57BL/6 and Plaur−/− mice; LPS treated 57BL/6 mice, native 57BL/6 kidney): increased podocyte uPAR expression | podocyte uPAR expression or deposit (immunostaining) (57BL/6 and Plaur−/− mice; LPS treated 57BL/6 mice, transplanted Plaur−/− kidney): clear uPAR expression or deposit | uPAR in podocytes (immunostaining) (57BL/6 and Plaur−/− mice; LPS treated Plaur−/− mice, native Plaur−/− kidney): not any uPAR | uPAR expression (immunostaining) (57BL/6 and Plaur−/− mice; LPS treated Plaur−/− mice, transplanted 57BL/6 kidney): increased uPAR expression | foot process effacement (TEM) (57BL/6 and Plaur−/− mice; Plaur−/− mice, native Plaur−/− kidney): not | foot process effacement (TEM) (57BL/6 and Plaur−/− mice; Plaur−/− mice, transplanted 57BL/6 kidney): readily observed
